Experimental data reported in ChEMBL document CHEMBL2021759, “Discovery of 4'-azido-2'-deoxy-2'-C-methyl cytidine and prodrugs thereof: a potent inhibitor of Hepatitis C virus replication” (Bioorg Med Chem Lett, 2012).

Key:
Hepatitis C virus = assay: Antiviral activity against Hepatitis C virus infected in human HuH7-Rep cells assessed as inhibition of viral replication by luciferase reporter gene assay; format: functional, organism-based, Hepacivirus hominis; details: Huh-7
[1] = Cytotoxicity against human HuH7 cells by CMV-luciferase reporter gene assay; format: cell-based, Huh-7
Rattus norvegicus [2] = assay: Apparent oral clearance in Sprague-Dawley rat assessed as 4'-azido-2'-deoxy-2'-methylcytidine level at 20 umol/kg, po; format: ADME, organism-based; details: in vivo
Rattus norvegicus [3] = assay: Oral bioavailability in Sprague-Dawley rat assessed as 4'-azido-2'-deoxy-2'-methylcytidine level at 20 umol/kg; format: ADME, organism-based; details: in vivo
Rattus norvegicus [4] = assay: AUC (0 to infinity) in Sprague-Dawley rat assessed as 4'-azido-2'-deoxy-2'-methylcytidine level at 20 umol/kg, po; format: ADME, organism-based, Plasma; set-up: dose 20 umol/kg, route oral, time infinity; details: in vivo
Rattus norvegicus [5] = assay: AUCt in Sprague-Dawley rat assessed as 4'-azido-2'-deoxy-2'-methylcytidine level at 20 umol/kg, po; format: ADME, organism-based, Plasma; details: in vivo
Rattus norvegicus [6] = assay: Cmax in Sprague-Dawley rat assessed as 4'-azido-2'-deoxy-2'-methylcytidine level at 20 umol/kg, po; format: ADME, organism-based; set-up: dose 20 umol/kg, route oral; details: in vivo
Rattus norvegicus [7] = assay: Tmax in Sprague-Dawley rat assessed as 4'-azido-2'-deoxy-2'-methylcytidine level at 20 umol/kg, po; format: ADME, organism-based; details: in vivo
[8] = Cytotoxicity against human MT4 cells by LTR-luciferase reporter gene assay; format: cell-based
[9] = Apparent permeability across human Caco2 cells; format: ADME, cell-based; details: Caco-2
[10] = Apparent oral clearance in Sprague-Dawley rat at 20 umol/kg, po; format: ADME, organism-based; details: in vivo
[11] = Intrinsic clearance in human liver microsomes; format: ADME, Microsome; details: read-out: CLH
[12] = AUC (0 to infinity) in Sprague-Dawley rat at 5 umol/kg, iv; format: ADME, organism-based; set-up: dose 5 umol/kg, route intravenous, time infinity; details: plasma
[13] = AUCt in Sprague-Dawley rat at 20 umol/kg, po; format: ADME, organism-based; details: plasma
[14] = Intrinsic clearance in rat liver microsomes; format: ADME, Microsome; details: read-out: CLH
[15] = AUCt in Sprague-Dawley rat at 5 umol/kg, iv; format: ADME, organism-based; details: plasma
[16] = Oral bioavailability in Sprague-Dawley rat at 20 umol/kg; format: ADME, organism-based; details: in vivo
[17] = AUC (0 to infinity) in Sprague-Dawley rat at 20 umol/kg, po; format: ADME, organism-based; set-up: dose 20 umol/kg, time infinity, route oral; details: plasma
[18] = Tmax in Sprague-Dawley rat at 20 umol/kg, po; format: ADME, organism-based; details: in vivo
[19] = Cmax in Sprague-Dawley rat at 20 umol/kg, po; format: ADME, organism-based; set-up: dose 20 umol/kg, route oral; details: in vivo

SMILES | EC50 (Hepatitis C virus) [nM] | CC50 [1] [µM] | CL/F (Rattus norvegicus [2]) [L/h/kg] | F (Rattus norvegicus [3]) [%] | AUC (Rattus norvegicus [4]) [µM·h] | AUCt (Rattus norvegicus [5]) [µM·h] | Cmax (Rattus norvegicus [6]) [nM] | Tmax (Rattus norvegicus [7]) [h] | CC50 [8] [µM] | also measured
CC(C)[C@H](N)C(=O)OC[C@@]1(N=[N+]=[N-])O[C@@H](n2ccc(N)nc2=O)[C@H](C)[C@@H]1O.O=C(O)C(F)(F)F | 790 | > 100 | 12 | 8 | 1.68 | 1.56 | 500 | 1 | – | –
C[C@H]1[C@H](n2ccc(=O)[nH]c2=O)O[C@@](CO)(N=[N+]=[N-])[C@H]1O | – | > 100 | – | – | – | – | – | – | > 100 | IC50 (Hepatitis C virus): > 50 µM
CC(C)[C@H](N)C(=O)OC[C@@]1(N=[N+]=[N-])O[C@@H](n2ccc(N)nc2=O)[C@H](C)[C@@H]1OC(=O)[C@@H](N)C(C)C.O=C(O)C(F)(F)F | 1900 | > 100 | 14.8 | 7 | 1.35 | 1.22 | 290 | 1 | – | –
C[C@H]1[C@H](n2ccc(N)nc2=O)O[C@@](COP(=O)(N[C@@H](C)C(=O)OCc2ccccc2)Oc2cccc3ccccc23)(N=[N+]=[N-])[C@H]1O (stereo partly drawn) | 3000 | > 100 | – | – | – | – | – | – | > 32 | –
C[C@H]1[C@H](n2ccc(N)nc2=O)O[C@@](CO)(N=[N+]=[N-])[C@H]1O | 1200 | > 98 | – | – | – | – | – | – | > 98 | Papp [9]: 1.7 ×10⁻⁶ cm/s; CL/F [10]: 119 mL/min/kg; microsomal CLint [11]: < 6 µL/min/mg; AUC(0-inf) [12]: 4.98 µM·h; AUC(0-t) [13]: 2.66 µM·h; microsomal CLint [14]: < 6 µL/min/mg; AUC(0-t) [15]: 4.97 µM·h; bioavailability [16]: 14%; AUC(0-inf) [17]: 2.87 µM·h; Tmax [18]: 2 h; Cmax [19]: 610 nM
CC(C)[C@H](N)C(=O)O[C@H]1[C@@H](C)[C@H](n2ccc(N)nc2=O)O[C@@]1(CO)N=[N+]=[N-].O=C(O)C(F)(F)F | 720 | > 100 | 4.93 | 20 | 4.06 | 3.66 | 1140 | 1 | – | –
C[C@H]1[C@H](n2ccc(=O)[nH]c2=O)O[C@@](COP(=O)(N[C@@H](C)C(=O)OCc2ccccc2)Oc2cccc3ccccc23)(N=[N+]=[N-])[C@H]1O (stereo partly drawn) | 6200 | > 100 | – | – | – | – | – | – | 41 | –
CC(C)C(=O)OC[C@@]1(N=[N+]=[N-])O[C@@H](n2ccc(N)nc2=O)[C@H](C)[C@@H]1OC(=O)C(C)C | 6600 | > 100 | 1.55 | 65 | 12.9 | 12.7 | 4650 | 1 | > 50 | Papp [9]: 7.7 ×10⁻⁶ cm/s; microsomal CLint [11]: > 300 µL/min/mg
